Assay results: patent publication US11059886B1, “Methods and compositions for treating inflammatory or autoimmune diseases or conditions using GRM8 activators” (Flagship Pioneering Innovations V, Inc., priority 2018, dated 2021)

Tested on: M2-like macrophages
Experiment: IL-8 secretion by M-CSF-differentiated human monocyte-derived M2-like macrophages (LEGENDplex bead-based immunoassay of supernatant)
Assay type: cell-based
Conditions: M2-like macrophages from human CD14+ monocytes
Protocol: CD14+ monocytes were isolated from human PBMCs using negative magnetic bead selection (Stemcell Technologies) on day 0. Cells were cultured with M-CSF to differentiate monocytes to macrophages. On day 6, cells were treated with L-AP4 (selective group III metabotropic glutamate receptor agonist) (Sigma-Aldrich), at concentrations 1 μM and 10 μM overnight. Supernatant was collected and LEGENDplex™ bead-based immunoassays (Biolegend) were performed to detect for changes in cytokines secreted.
Secretion of the inflammatory cytokine, IL-8, was decreased with the addition of the mGluR8 agonist in M2-like macrophages, consistent across multiple donors, as shown in Table 15 below.

NC(CCP(=O)(O)O)C(=O)O [L-AP4]
Fold change of IL-8 (Normalized to M2-like Macs + LPS with no compound treatment) (L-AP4 1 μM overnight): 0.646 fold change | Fold change of IL-8 (Normalized to M2-like Macs + LPS with no compound treatment) (L-AP4 10 μM overnight): 0.866 fold change
